The source of these data is patent US9115177B2, “Preparation method of micafungin sodium” (Shanghai Techwell Biopharmaceutical Co., Ltd., priority 2011, dated 2015).

For data set [1] the following is noted: conjugate acid of weak base; cited from earlier work.
Data set [2] can be described thus: pKa values of compounds of benzene sulfonic acid. Format: physicochemical. As for the experimental part: Generally, there are two ways for preparing acid into sodium salt. One is exchange using cationic resin; the other is via adjusting pH value. Virtually, preparing sodium salt by adjusting pH value is a process of neutralization reaction between acid and base. It includes two types of reactions, i.e. the reaction between strong acid and strong base, and the reaction between […]. If strong base solution is added into strong acid solution for adjusting pH value, there is a sharp change in the pH value of the solution (the change of pH value is illustrated in FIG. 6), and the pH value will be instantly altered by 8. Therefore in the practical production, it is hard to control the pH value and a slightest mistake could lead to an overregulated pH value. In WO2004014879, a 0.1 mol/L NaOH solution was used to adjust pH value to 6-8 for obtaining formula II compound. It was actually a reaction between strong acid and strong base. […] Therefore, theoretically, the method using NaOH solution to adjust pH values for obtaining sodium salt is unsuitable for preparation of formula II compound.

Data set [3] is described as follows: pH adjustment of formula I compound with 0.1 mol/L NaOH solution, HPLC. Type of data set: physicochemical. Conditions: pH adjusted with 0.1 mol/L NaOH solution added dropwise. The method, then:
The inventors have repeated the method reported in WO2004014879 for multiple times and analyzed and validated the reported method from the point of view of local pH value.
The method for measuring HPLC purity of Formula I compound is shown as follows.
HPLC analytical column: YMC-ODS 250×4.6 mm, 5 μm
Mobile phase: acetonitrile: phosphate buffer (pH 3.0)=[…]
Column temperature: 35±5° C.
Dilution: phosphate buffer in water
Wave length detected: 210 nm
Volume of sample injection: 10 μl
Retention time of the main peak: approx. 18 min.
According to the purification process for micafungin in WO2004014879, ion exchange was applied to 0.5 g of compound of formula I by using 50 ml of cation exchange resin UBK510L. The product was sampled and analyzed. HPLC purity was determined as 99.54%. […] The product was sampled and analyzed. HPLC purity was determined as 98.01% (See FIG. 2). […] The produce was sampled and analyzed. HPLC purity was determined as 97.90%. […] The product was sampled and analyzed. HPLC purity was determined as 97.81%. […] The product was sampled and analyzed. HPLC purity was determined as 97.75%. […] The product was sampled and analyzed. HPLC purity was determined as 97.67%. […] The product was sampled and analyzed. HPLC purity was determined as 97.59%. […] The product was sampled and analyzed.

Like-named read-outs stand apart in the source and are kept apart here. Marks after values point to notes of the source that are not given here. Numbered stars: 1 amine (or outer) side, 2 acyl side, 3 side chain; on linkers, the order of the positions; unused ones are H or OH. Bridge positions count the residues as written; N and C are the ends. Square brackets hold non-standard residues; d marks the D form. Peptide text beside a SMILES is read from it. * marks the point of attachment. hTyr(3S-OH,4S-OH,3'-OSO3H) = N[C@H](C(=O)O)[C@H](O)[C@@H](O)c1ccc(O)c(OS(=O)(=O)O)c1; Orn(4R-OH,5R-OH) = O=C([C@H](C[C@@H](O)[C@@H](O)N[*:3])N[*:1])[*:2]; Pro(3S-OH,4S-Me) = C[C@H]1CN[C@H](C(=O)O)[C@H]1O; X1 = CCCCCOc1ccc(-c2cc(-c3ccc(C(=O)*)cc3)no2)cc1; Gln(3R-OH) = NC(=O)C[C@@H](O)[C@H](N)C(=O)O; Hyp = O=C(O)[C@@H]1C[C@@H](O)CN1

With `OB(O)O` [boric acid], in data set [1], the pKa1 was 9.24, the pKa2 was 12.74^a and the pKa3 is 13.80^a.

As to `S` [hydrosulfuric acid], in data set [1], the pKa1 is given as 6.88 and the pKa2 is 14.15^a.

On to `O=C(O)CC(O)C(=O)O` (centres unmarked) [malic acid], for which, in data set [1], the pKa1 is listed as 3.40^a and the pKa2 is on record as 5.13.

As a reminder, the pKa is the pH at which an ionisable group is half protonated. A low value points to a stronger acid or weaker base. In data set [2], `CCCCCOc1ccc(-c2cc(-c3ccc(C(=O)N[C@H]4C[C@@H](O)[C@@H](O)NC(=O)[C@@H]5[C@@H](O)[C@@H](C)CN5C(=O)[C@H]([C@H](O)CC(N)=O)NC(=O)[C@H]([C@H](O)[C@@H](O)c5ccc(O)c(OS(=O)(=O)O)c5)NC(=O)[C@@H]5C[C@@H](O)CN5C(=O)[C@H]([C@@H](C)O)NC4=O)cc3)no2)cc1` [micafungin, Micafungin] (X1-[Orn(4R-OH,5R-OH)]T[Hyp][hTyr(3S-OH,4S-OH,3'-OSO3H)][Gln(3R-OH)][Pro(3S-OH,4S-Me)]; lactam 1-C) came in with a pKa below 1. Moreover, the stability in solution entry by setting is: (pH 4.0-6.0) “more stable”; (pH 4.0-7.0) “stability is good”; (pH 4.5-5.5) “most stable”; (pH of solution adjusted to 7) “no obvious degradation”; (solution with high pH value) “poor stability”. Also, in data set [3], the “degradation after pH adjustment (HPLC)” value is given as “obvious degradation”.

Turning to `C/C=C/C=C/C(=O)O` [sorbic acid], the pKa1 in data set [1] is on record as 4.76.

For `O=S(O)O` [sulfurous acid], in data set [1], the pKa1 is reported as 1.90^a and the pKa2 is reported as 7.20.
